The source of these data is PMC5575254, “An allosteric ligand-binding site in the extracellular cap of K2P channels” (Nature Communications, 2017).

In one experiment the test system is K2P channels. Further details: method as in PMID 9628867, PMID 8605869. Particulars: ref [26], [27]; cited from earlier work.
The target of another experiment is T1, TREK-1 channel (Homo sapiens, UniProt O95069).
T1 construct: expressed in transfected cells; host or cells: CHO cells, transient transfection
T1 sequence (O95069 1-411 isoform O95069-2): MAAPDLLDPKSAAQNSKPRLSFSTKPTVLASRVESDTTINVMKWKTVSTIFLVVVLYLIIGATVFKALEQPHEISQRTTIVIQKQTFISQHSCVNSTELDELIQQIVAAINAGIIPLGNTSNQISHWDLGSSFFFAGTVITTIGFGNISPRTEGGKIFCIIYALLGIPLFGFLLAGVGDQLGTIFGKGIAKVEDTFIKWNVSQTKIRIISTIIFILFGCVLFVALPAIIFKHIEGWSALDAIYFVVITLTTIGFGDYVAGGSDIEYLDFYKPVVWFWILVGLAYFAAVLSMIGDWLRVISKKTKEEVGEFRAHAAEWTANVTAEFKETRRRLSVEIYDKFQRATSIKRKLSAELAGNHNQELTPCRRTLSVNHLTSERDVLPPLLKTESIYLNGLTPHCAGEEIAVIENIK
Briefly: Whole-cell voltage clamp of CHO cells transiently transfected with TREK-1. It is filed as cell-based. Particulars: whole-cell, CHO cells, WT TREK-1, mean ± s.e.m; for IC50: read-out: half-maximal inhibition concentration (IC50), TREK-1. An excerpt:
(§1) cDNA of the human TREK-1, TREK-2 and TRAAK channels were subcloned into the pEGFPN1 expression vector (Invitrogen), respectively. Mutations were introduced into TREK-1 or TRAAK by PCR using the QuickChange XL sitedirected mutagenesis kit (Agilent Technologies) and were subsequently confirmed by DNA sequencing.
(§2) Chinese hamster ovary (CHO) cells were provided by the Cell Bank of Chinese Academy of Sciences (Shanghai, China). CHO cells were maintained in DMEM/F12 (Gibco) supplemented with 10% fetal bovine serum (Gibco) and 100 μg ml^−1 penicillin-streptomycin (Cellgro) in a humidified incubator at 37 °C (5% CO2). For electrophysiology experiments, cells plated in 35 mm tissue culture dishes (Corning Incorporated) were transiently transfected with the plasmids using PolyJet™ reagent (SignaGen) according to the manufacturer’s instructions. Primers used in this study are listed in Supplementary Table 4.
(§3) All electrophysiological recordings were obtained using patch-clamp recordings in two different configurations: (1) whole cell for macroscopic current dose–response curves; and (2) outside-out and inside-out for macroscopic currents recordings.
(§4) All patch-clamp recordings were conducted 36–96 h after transfection with an Axopatch-200B amplifier (Molecular Devices) at room temperature (23–25 °C). The microelectrodes fashioned from 1.5 mm thin-walled borosilicate glass with filament were pulled from Flaming/Brown type micropipette puller (P-97; SUTTER INSTRUMENT) with the resistances of 3–7 MΩ (whole cell) or 7–15 MΩ (outside-out) when filled with a solution containing (in mM): 140 KCl, 2 MgCl2, 10 EGTA, 1 CaCl2, 10 HEPES (pH 7.3, adjusted with KOH). External solution contained (in mM): 150 NaCl, 5 KCl, 0.5 CaCl2, 1.2 MgCl2, 10 HEPES (pH 7.3, adjusted with NaOH). The current signals were filtered at 1 kHz and digitized at a 10 kHz sampling frequency by using DigiData 1440 A.
(§5) Data of whole-cell voltage clamp experiments were fitted using doseResp function. The half inhibition concentrations were derived from fits of the dose–response curves to the function:1 I/I0=A1+A2-A1/1+10^logx0-xP, where I 0 and I are current amplitudes before and after application of inhibitors; A 1 and A 2 are constants between 0 and 1; x is the concentration of inhibitor; x o is the concentration when 50% inhibition was reached (IC50), P is the Hill constant.

Experiment [1] deals with T2, TREK-2 (Homo sapiens, UniProt P57789).
T2 construct: expressed in transfected cells; host or cells: CHO cells, transient transfection
T2 sequence (P57789 1-538): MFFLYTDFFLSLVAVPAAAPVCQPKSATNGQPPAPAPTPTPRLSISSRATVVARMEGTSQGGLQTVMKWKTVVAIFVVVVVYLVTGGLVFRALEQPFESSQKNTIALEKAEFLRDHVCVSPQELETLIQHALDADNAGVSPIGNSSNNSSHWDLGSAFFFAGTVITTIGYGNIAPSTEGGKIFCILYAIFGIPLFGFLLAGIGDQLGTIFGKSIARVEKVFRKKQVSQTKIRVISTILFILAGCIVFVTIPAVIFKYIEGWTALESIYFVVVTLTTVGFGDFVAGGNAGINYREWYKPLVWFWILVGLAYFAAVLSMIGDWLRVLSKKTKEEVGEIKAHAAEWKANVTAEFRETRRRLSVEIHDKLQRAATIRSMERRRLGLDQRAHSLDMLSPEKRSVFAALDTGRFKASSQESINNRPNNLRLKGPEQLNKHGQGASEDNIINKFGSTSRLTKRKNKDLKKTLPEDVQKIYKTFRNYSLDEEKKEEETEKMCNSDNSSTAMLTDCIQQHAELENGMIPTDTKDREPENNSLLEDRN
Briefly: Whole-cell voltage clamp of CHO cells expressing TREK-2. Particulars: mean ± s.e.m. It is filed as cell-based.
Excerpt: as §1, §2, §3, §4, §5

The target in another experiment is T3, TRAAK (Homo sapiens, UniProt Q9NYG8).
T3 construct: expressed in transfected cells; host or cells: CHO cells, transient transfection
T3 sequence (Q9NYG8 1-393): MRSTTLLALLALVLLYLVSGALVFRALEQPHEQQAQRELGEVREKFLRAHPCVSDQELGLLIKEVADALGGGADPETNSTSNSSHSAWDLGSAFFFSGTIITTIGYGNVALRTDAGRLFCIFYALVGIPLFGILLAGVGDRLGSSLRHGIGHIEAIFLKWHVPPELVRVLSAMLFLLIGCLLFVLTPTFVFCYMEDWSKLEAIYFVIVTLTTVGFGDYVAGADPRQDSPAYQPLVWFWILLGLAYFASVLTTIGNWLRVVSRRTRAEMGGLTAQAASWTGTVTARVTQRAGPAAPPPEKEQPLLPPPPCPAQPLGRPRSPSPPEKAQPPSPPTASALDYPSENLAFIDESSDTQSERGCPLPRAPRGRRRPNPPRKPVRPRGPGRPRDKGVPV
Briefly: Whole-cell voltage clamp of CHO cells expressing TRAAK. Particulars: for IC50: whole-cell, CHO cells, WT TRAAK, mean ± s.e.m. The class given is cell-based.
Excerpt: as §1, §2, §3, §4, §5

The next experiment has as its system mice. Briefly: Forced swimming test. Particulars: chronic i.p. administration 10 days; TKDC 0.5, 1, 5 mg kg-1; fluoxetine 10 mg kg-1; vs vehicle. It is filed as in vivo, Male C57BL/6 mice. Here is the method:
Male C57BL/6 mice, aged 8 weeks (weighing 18–20 g) were used for acute and chronic drug administration and behavioral tests. The mice were housed four per cage under a 12-h light–dark cycle. Mice were raised under stable conditions with food and water ad libitum. All animal studies and experimental procedures were approved by the Animal Care Committees of the Shanghai Institute of Materia Medica, Chinese Academy of Sciences, and experiments were carried out in accordance with EU Directive 2010/63/EU on the protection of animals used for scientific purposes. […] The mice were removed to a sound-attenuating testing room 3–4 h before testing. The behavioral tests were carried out 30 min and 24 h after acute and chronic drugs administration, respectively.
The mice were performed under normal light. The apparatus was a transparent Plexiglas cylinder with 30 cm height × 10 cm diameter and the water temperature at 23–25 °C were set to prevent mice from touching the bottom with their limbs. Mice were allowed to swim for 8 min, and their activity was videotaped. There was an extra 15-min swimming in the previous day. The duration of immobility defined as floating or remaining motionless was assessed. To avoid extremely active at the beginning of swimming, the first 2 min of swimming was also excluded as the tail suspension test. […]

The test system of the next experiment is TREK channels. Particulars: ref [7], [16]; cited from earlier work.
In the next experiment the test system is I110D TREK-1 mutant. Also noted: method as in PMID 25409575. Particulars: ref [22]; cited from earlier work.
Experiment [2] has as its system TREK-1. Also noted: method as in Braun et al. [22]. Particulars: ref Braun et al. [22]; cited from earlier work.
Experiment [3] deals with TREK-2. Further details: method as in PMID 25409575, PMID 18417474, PMID 12606773, PMID 16513667. Particulars: binds D135; ref [22]-[25]; cited from earlier work.
Another experiment deals with TASK-3. Further details: method as in PMID 25409575, PMID 18417474, PMID 12606773, PMID 16513667. Particulars: binds E70; ref [22]-[25]; cited from earlier work.
Experiment [4] has as its system TREK-1. Further details: method as in earlier work. Particulars: ref [2] Borsotto M, et al. (2015); cited from earlier work.

`Nc1ccncc1` [4-aminopyridine]: the “sensitivity of K2P channels to classical potassium channel pore blockers” value (“sensitivity of K2P channels” for short) in the experiment with K2P channels is “insensitivity”.
For `O=C(CNc1ccc(Cl)cc1)N1CCc2ccccc2C1` [28NH, 2-((4-chlorophenyl)amino)-1-(3,4-dihydroisoquinolin-2(1H)-yl)ethanone], on TREK-1 channel, the “half-maximal inhibition concentration (IC50), TREK-1” value is recorded as “comparable to those observed for TKDC-induced inhibitions”. The “IC50, TREK-2” value on TREK-2 [1] was “comparable to those observed for TKDC-induced inhibitions”. Besides, the “IC50 for TRAAK relative to the value obtained with TKDC” value at TRAAK (28NH vs TKDC) is “almost sevenfold lower”. This molecule showed an IC50 on TRAAK of 11.8 ± 2.1 µM.
Turning to `COc1ccccc1C(=O)Nc1cc(C(C)C)ccc1O` [TKN1], the IC50 was 6.5 ± 1.7 µM on TREK-1 channel, 4.4 ± 1 µM at TREK-2 [1] and 15.7 ± 3.1 µM against TRAAK.
Consider `Cc1cc(NC(=O)c2cccs2)cc(-c2nc3ccccc3o2)c1O` [TKN2], for which the IC50 at TREK-1 channel came to 3.8 ± 0.6 µM; against TREK-2 [1], 1.7 ± 0.8 µM; on TRAAK, 10.3 ± 1.5 µM.
In the case of `[Cs+]` [cesium ion], the “sensitivity of K2P channels” value in the experiment on K2P channels is given as “insensitivity”.
As for `CNCCC(Oc1ccc(C(F)(F)F)cc1)c1ccccc1` (centres unmarked) [fluoxetine, reference compound], the “immobility in the forced swimming test” value with mice is “did not show antidepressant effects”. Besides, the “effect on TREK channels” value with TREK channels was “can also inhibit TREK channels”.
In the case of `N.N.N.N.N.N.N.N.N.N.N.N.N.N.[Cl-].[Cl-].[Cl-].[Cl-].[Cl-].[Cl-].[O-2].[O-2].[Ru+3].[Ru+3].[Ru+4]` [ruthenium red], the “effect on I110D TREK-1 mutant” value in the experiment with I110D TREK-1 mutant is recorded as “inhibits”. In the experiment on TREK-1 [2], the “sensitivity of TREK-1” value is recorded as “not sensitive”. The “effect on TREK-2” value in the experiment on TREK-2 [3] is “inhibit”. In the experiment with TASK-3, the “effect on TASK-3” value is recorded as “inhibit”.
As for `CC[N+](CC)(CC)CC` [tetraethylammonium], the “sensitivity of K2P channels” value with K2P channels is “insensitivity”.
As for spadin, the “effect on TREK-1” value with TREK-1 [4] is given as “specifically blocks the TREK-1”.
